Here are results for seven molecules from patent publication US3989845A, “Anesthetic chlorocyclopropanes” (priority 1974, dated 1976).

The first series relates to Mice. The series is described as follows: Inhalation anesthesia test in mice, 10 minutes in a rotating drum (pinch, corneal and righting reflex): AC50, LC50 and anesthetic index. It counts as in vivo. To be noted: calculated from LC50 and AC50, 10 min. How it is done:
Mice were exposed to the anesthetic for a period of 10 minutes in a rotating drum. Observations were then made of the pinch reflex, the corneal reflex and the return of the righting reflex. At least four graded doses were employed to determine the minimum concentration required to anesthetize 50% of the mice used (AC50) and the minimum concentration required to kill 50% of the mice (LC50). The anesthetic index (AI) was then calculated from these minimum concentrations.
In the case of `CC1(F)C(F)(F)C1(Cl)Cl` (stereo not drawn) [Example 8, 1,1-diCl-2-CH3-triF-], the “AI (anesthetic index, LC50/AC50)” value is 4-6.

For the molecule `CC1(Cl)CC1(F)Cl` (stereo not drawn) [Example 9, 1,2-Dichloro-1-fluoro-2-methylcyclopropane], the “AI (anesthetic index, LC50/AC50)” value is reported as above 2.

On to `FC1(F)C(F)(Cl)C1(Cl)Cl` (stereo not drawn) [Example 10, 1,1,2-triCl-triF-], for which the “AI (anesthetic index, LC50/AC50)” value is reported as above 3.

For `FC(F)(F)C1(F)C(F)(F)C1(Cl)Cl` (stereo not drawn) [Example 11, 1,1-diCl-2-CF3-triF-], the “AI (anesthetic index, LC50/AC50)” value is listed as ~ 2.

As for `FC1(F)C(F)(Cl)C1(F)Cl` (stereo not drawn) [Example 12, 1,2-Dichlorotetrafluorocyclopropane], the “AI (anesthetic index, LC50/AC50)” value is ~ 2.

`FC1(F)C(Cl)(Cl)C1(Cl)Cl` [Example 13, 1,1,2,2-tetraCl-diF-]: the “AI (anesthetic index, LC50/AC50)” value is ~ 4.

As for `FC1C(F)(F)C1(Cl)Cl` (stereo not drawn) [Example 14, 1,1-diCl-2,3,3-triF-], the “AI (anesthetic index, LC50/AC50)” value is reported as 2-3.

The same series, now with this note: inhalation, 10 minutes in rotating drum, at least four graded doses, where two figures are given, the actual value lies between them.
In the case of `CC1(F)C(F)(F)C1(Cl)Cl` (stereo not drawn) [Example 8, 1,1-diCl-2-CH3-triF-], the “AC50 (minimum concentration required to anesthetize 50% of the mice)” value was below 1 % volume and the “LC50 (minimum concentration required to kill 50% of the mice)” value is recorded as 4-6 % volume.

For `CC1(Cl)CC1(F)Cl` (stereo not drawn) [Example 9, 1,2-Dichloro-1-fluoro-2-methylcyclopropane], the “AC50 (minimum concentration required to anesthetize 50% of the mice)” value is on record as below 1 % volume and the “LC50 (minimum concentration required to kill 50% of the mice)” value is 2-4 % volume.

Consider `FC1(F)C(F)(Cl)C1(Cl)Cl` (stereo not drawn) [Example 10, 1,1,2-triCl-triF-], for which the “AC50 (minimum concentration required to anesthetize 50% of the mice)” value is listed as 1.5 % volume and the “LC50 (minimum concentration required to kill 50% of the mice)” value is given as 2-10 % volume.

As to `FC(F)(F)C1(F)C(F)(F)C1(Cl)Cl` (stereo not drawn) [Example 11, 1,1-diCl-2-CF3-triF-], the “AC50 (minimum concentration required to anesthetize 50% of the mice)” value is 4 % volume and the “LC50 (minimum concentration required to kill 50% of the mice)” value was above 10 % volume.

For the molecule `FC1(F)C(F)(Cl)C1(F)Cl` (stereo not drawn) [Example 12, 1,2-Dichlorotetrafluorocyclopropane], the “AC50 (minimum concentration required to anesthetize 50% of the mice)” value was 6-10 % volume and the “LC50 (minimum concentration required to kill 50% of the mice)” value is reported as below 20 % volume.

For the molecule `FC1(F)C(Cl)(Cl)C1(Cl)Cl` [Example 13, 1,1,2,2-tetraCl-diF-], the “AC50 (minimum concentration required to anesthetize 50% of the mice)” value was determined as 0.25 % volume and the “LC50 (minimum concentration required to kill 50% of the mice)” value stood at 1 % volume.

For `FC1C(F)(F)C1(Cl)Cl` (stereo not drawn) [Example 14, 1,1-diCl-2,3,3-triF-], the “AC50 (minimum concentration required to anesthetize 50% of the mice)” value is reported as below 2 % volume and the “LC50 (minimum concentration required to kill 50% of the mice)” value is given as 4-6 % volume.
